# Like-named read-outs stand apart in the source and are kept apart here.
# Experiments:
# Assay type in all cases: cell-based
# HIV-1 strain 92HT599 = experiment: Antiviral activity against HIV-1 strain 92HT599 in MT2 cells (p24 estimation); conditions: HIV-1 92HT599, ~96 hours
# In short: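 Percent inhibition versus vehicle controls came from p24 quantified in supernatant aliquots. These were taken after ~96 h incubation of compound (DMSO ≤1%) with MT2 cells infected at 10 TCID50/30,000 cells.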
# HIV-1 pNL4-3 WT = experiment: Antiviral activity against pNL4-3/WT strain in MT4 cells (p24 estimation); conditions: Human immunodeficiency virus 1, MT4, 96 h, read-out: pNL4-3 WT IC50
# Experimental: (§1) Example 78: Evaluation of Compounds Antiviral Activity Against pNL4-3/WT & V7A Strains in MT4 Cells
# (§2) MT4 cells were Transfected with HIV-1 Plasmid (pNL4-3-WT & V7A) (Cells were incubating with required number of TCID50 of HIV-1 for 1.5 h at 37° C.). After infection, the infected cells were plated at the concentration of 3×10^4 cells per well in 96 well plate. Test compound was added to the test plate in defined format with the final concentration of DMSO is not more than 1%. Incubation was carried out in CO2 incubator for 4 days for viral infection. At the end of incubation period an aliquot from each well was taken for p24 estimation. p24 estimation was carried out using Advance biosciences kit as per the procedure detailed by supplier.
# HIV-1 pNL4-3 V7A = experiment: Antiviral activity against pNL4-3/V7A strain in MT4 cells (p24 estimation); conditions: Human immunodeficiency virus 1, MT4, 96 h, read-out: pNL4-3 V7A IC50
# Experimental: as §1, §2
# [1] = Human immunodeficiency virus 1, 0% serum binding assay, read-out: IC50 0% serum
# [2] = Human immunodeficiency virus 1, 40% serum binding assay, read-out: IC50 40% serum
compound,measurement,setting,value
"CC(C)C1=C2[C@H]3CC[C@@H]4[C@@]5(C)CC[C@H](OC(=O)[C@H]6C[C@@H](C(=O)O)C6(C)C)C(C)(C)[C@@H]5CC[C@@]4(C)[C@]3(C)CC[C@@]2(NC(=O)C(C)(C)NC(=O)c2ccc(N3CCOCC3)cc2)CC1=O [Example 18, (1R,3S)-3-((((3aR,5aR,5bR,7aR,9S,11aR,11bR,13aS)-1-isopropyl-5a,5b,8,8,11a-pentamethyl-3a-(2-methyl-2-(4-morpholinobenzamido)propanamido)-2-oxo-3,3a,4,5,5a,5b,6,7,7a,8,9,10,11,11a,11b,12,13,13a-octadecahydro-2H-cyclopenta[a]chrysen-9-yl)oxy)carbonyl)-2,2-dimethylcyclobutane-1-carboxylic acid]",IC50,HIV-1 strain 92HT599; [1],< 0.003 µM
same,IC50,HIV-1 strain 92HT599; [2],< 0.05 µM
same,IC50,HIV-1 pNL4-3 WT,< 0.005 µM
same,IC50,HIV-1 pNL4-3 V7A,< 0.01 µM
"Cc1noc(C)c1C(=O)NC(C)(C)C(=O)N[C@@]12CC[C@]3(C)[C@H](CC[C@@H]4[C@@]5(C)CC[C@H](OC(=O)[C@H]6C[C@@H](C(=O)O)C6(C)C)C(C)(C)[C@@H]5CC[C@]43C)C1=C(C(C)C)C(=O)C2 [Example 19, (1R,3S)-3-((((3aR,5aR,5bR,7aR,9S,11aR,11bR,13aS)-3a-(2-(3,5-dimethylisoxazole-4-carboxamido)-2-methylpropanamido)-1-isopropyl-5a,5b,8,8,11a-pentamethyl-2-oxo-3,3a,4,5,5a,5b,6,7,7a,8,9,10,11,11a,11b,12,13,13a-octadecahydro-2H-cyclopenta[a]chrysen-9-yl)oxy)carbonyl)-2,2-dimethylcyclobutane-1-carboxylic acid]",IC50,HIV-1 strain 92HT599; [1],< 0.003 µM
same,IC50,HIV-1 strain 92HT599; [2],< 0.05 µM
same,IC50,HIV-1 pNL4-3 WT,< 0.005 µM
same,IC50,HIV-1 pNL4-3 V7A,< 0.01 µM
"Cc1cn(-c2ccc(C(=O)NC(C)(C)C(=O)N[C@@]34CC[C@]5(C)[C@H](CC[C@@H]6[C@@]7(C)CC[C@H](OC(=O)[C@H]8C[C@@H](C(=O)O)C8(C)C)C(C)(C)[C@@H]7CC[C@]65C)C3=C(C(C)C)C(=O)C4)cc2)cn1 [Example 20, (1R,3S)-3-((((3aR,5aR,5bR,7aR,9S,11aR,11bR,13aS)-1-isopropyl-5a,5b,8,8,11a-pentamethyl-3a-(2-methyl-2-(4-(4-methyl-1H-imidazol-1-yl)benzamido)propanamido)-2-oxo-3,3a,4,5,5a,5b,6,7,7a,8,9,10,11,11a,11b,12,13,13a-octadeca hydro-2H-cyclopenta[a]chrysen-9-yl)oxy)carbonyl)-2,2-dimethylcyclobutane-1-carboxylic acid]",IC50,HIV-1 strain 92HT599; [1],< 0.003 µM
same,IC50,HIV-1 strain 92HT599; [2],< 0.05 µM
same,IC50,HIV-1 pNL4-3 WT,> 0.01 µM
same,IC50,HIV-1 pNL4-3 V7A,> 0.05 µM
"CC(C)C1=C2[C@H]3CC[C@@H]4[C@@]5(C)CC[C@H](OC(=O)[C@H]6C[C@@H](C(=O)O)C6(C)C)C(C)(C)[C@@H]5CC[C@@]4(C)[C@]3(C)CC[C@@]2(NC(=O)C(C)(C)NC(=O)c2ccc(C(F)(F)F)cc2)CC1=O [Example 25, (1R,3S)-3-((((3aR,5aR,5bR,7aR,9S,11aR,11bR,13aS)-1-isopropyl-5a,5b,8,8,11a-pentamethyl-3a-(2-methyl-2-(4-(trifluoromethyl)benzamido)propan amido)-2-oxo-3,3a,4,5,5a,5b,6,7,7a,8,9,10,11,11a,11b,12,13,13a-octadecahydro-2H-cyclopenta[a]chrysen-9-yl)oxy)carbonyl)-2,2-dimethylcyclobutane-1-carboxylic acid]",IC50,HIV-1 strain 92HT599; [1],< 0.003 µM
same,IC50,HIV-1 strain 92HT599; [2],< 0.05 µM
same,IC50,HIV-1 pNL4-3 WT,< 0.005 µM
same,IC50,HIV-1 pNL4-3 V7A,< 0.01 µM
"CC(C)C1=C2[C@H]3CC[C@@H]4[C@@]5(C)CC[C@H](OC(=O)[C@H]6C[C@@H](C(=O)O)C6(C)C)C(C)(C)[C@@H]5CC[C@@]4(C)[C@]3(C)CC[C@@]2(NC(=O)C(C)(C)NC(=O)c2ccc3ccccc3n2)CC1=O [Example 28, (1R,3S)-3-((((3aR,5aR,5bR,7aR,9S,11aR,11bR,13aS)-1-isopropyl-5a,5b,8,8,11a-pentamethyl-3a-(2-methyl-2-(quinoline-2-carboxamido)propanamido)-2-oxo-3,3a,4,5,5a,5b,6,7,7a,8,9,10,11,11a,11b,12,13,13a-octadecahydro-2H-cyclopenta[a]chrysen-9-yl)oxy)carbonyl)-2,2-dimethylcyclobutane-1-carboxylic acid]",IC50,HIV-1 strain 92HT599; [1],< 0.003 µM
same,IC50,HIV-1 strain 92HT599; [2],< 0.05 µM
same,IC50,HIV-1 pNL4-3 WT,0.00501 to 0.01 µM
same,IC50,HIV-1 pNL4-3 V7A,0.01 to 0.05 µM
"Cc1occc1C(=O)NC(C)(C)C(=O)N[C@@]12CC[C@]3(C)[C@H](CC[C@@H]4[C@@]5(C)CC[C@H](OC(=O)[C@H]6C[C@@H](C(=O)O)C6(C)C)C(C)(C)[C@@H]5CC[C@]43C)C1=C(C(C)C)C(=O)C2 [Example 30, (1R,3S)-3-((((3aR,5aR,5bR,7aR,9S,11aR,11bR,13aS)-1-isopropyl-5a,5b,8,8,11a-pentamethyl-3a-(2-methyl-2-(2-methylfuran-3-carboxamido)propan amido)-2-oxo-3,3a,4,5,5a,5b,6,7,7a,8,9,10,11,11a,11b,12,13,13a-octadecahydro-2H-cyclopenta[a]chrysen-9-yl)oxy)carbonyl)-2,2-dimethylcyclobutane-1-carboxylic acid]",IC50,HIV-1 strain 92HT599; [1],< 0.003 µM
same,IC50,HIV-1 strain 92HT599; [2],< 0.05 µM
same,IC50,HIV-1 pNL4-3 WT,0.00501 to 0.01 µM
same,IC50,HIV-1 pNL4-3 V7A,> 0.05 µM
"CC(C)C1=C2[C@H]3CC[C@@H]4[C@@]5(C)CC[C@H](OC(=O)[C@H]6C[C@@H](C(=O)O)C6(C)C)C(C)(C)[C@@H]5CC[C@@]4(C)[C@]3(C)CC[C@@]2(NC(=O)C(C)(C)NC(=O)c2cccnc2N2CCOCC2)CC1=O [Example 31, (1R,3S)-3-((((3aR,5aR,5bR,7aR,9S,11aR,11bR,13aS)-1-isopropyl-5a,5b,8,8,11a-pentamethyl-3a-(2-methyl-2-(2-morpholinonicotinamido)propan amido)-2-oxo-3,3a,4,5,5a,5b,6,7,7a,8,9,10,11,11a,11b,12,13,13a-octadecahydro-2H-cyclopenta[a]chrysen-9-yl)oxy)carbonyl)-2,2-dimethylcyclobutane-1-carboxylic acid]",IC50,HIV-1 strain 92HT599; [1],< 0.003 µM
same,IC50,HIV-1 strain 92HT599; [2],< 0.05 µM
same,IC50,HIV-1 pNL4-3 WT,< 0.005 µM
same,IC50,HIV-1 pNL4-3 V7A,> 0.05 µM
"CC(C)C1=C2[C@H]3CC[C@@H]4[C@@]5(C)CC[C@H](OC(=O)[C@H]6C[C@@H](C(=O)O)C6(C)C)C(C)(C)[C@@H]5CC[C@@]4(C)[C@]3(C)CC[C@@]2(NC(=O)C(C)(C)NC(=O)c2ncccn2)CC1=O [Example 32, (1R,3S)-3-((((3aR,5aR,5bR,7aR,9S,11aR,11bR,13aS)-1-isopropyl-5a,5b,8,8,11a-pentamethyl-3a-(2-methyl-2-(pyrimidine-2-carboxamido)propanamido)-2-oxo-3,3a,4,5,5a,5b,6,7,7a,8,9,10,11,11a,11b,12,13,13a-octadecahydro-2H-cyclopenta[a]chrysen-9-yl)oxy)carbonyl)-2,2-dimethylcyclobutane-1-carboxylic acid]",IC50,HIV-1 strain 92HT599; [1],0.00301 to 0.01 µM
same,IC50,HIV-1 strain 92HT599; [2],> 0.2 µM
same,IC50,HIV-1 pNL4-3 WT,> 0.01 µM
same,IC50,HIV-1 pNL4-3 V7A,> 0.05 µM
"Cc1cc(C(=O)NC(C)(C)C(=O)N[C@@]23CC[C@]4(C)[C@H](CC[C@@H]5[C@@]6(C)CC[C@H](OC(=O)[C@H]7C[C@@H](C(=O)O)C7(C)C)C(C)(C)[C@@H]6CC[C@]54C)C2=C(C(C)C)C(=O)C3)c(C)o1 [Example 33, (1R,3S)-3-((((3aR,5aR,5bR,7aR,9S,11aR,11bR,13aS)-3a-(2-(2,5-dimethylfuran-3-carboxamido)-2-methylpropanamido)-1-isopropyl-5a,5b,8,8,11a-pentamethyl-2-oxo-3,3a,4,5,5a,5b,6,7,7a,8,9,10,11,11a,11b,12,13,13a-octadecahydro-2H-cyclopenta[a]chrysen-9-yl)oxy)carbonyl)-2,2-dimethylcyclobutane-1-carboxylic acid]",IC50,HIV-1 strain 92HT599; [1],< 0.003 µM
same,IC50,HIV-1 strain 92HT599; [2],< 0.05 µM
same,IC50,HIV-1 pNL4-3 WT,< 0.005 µM
same,IC50,HIV-1 pNL4-3 V7A,< 0.01 µM
"CC(C)C1=C2[C@H]3CC[C@@H]4[C@@]5(C)CC[C@H](OC(=O)[C@H]6C[C@@H](C(=O)O)C6(C)C)C(C)(C)[C@@H]5CC[C@@]4(C)[C@]3(C)CC[C@@]2(NC(=O)C(C)(C)NC(=O)CN2CCS(=O)(=O)CC2)CC1=O [Example 34, (1R,3S)-3-((((3aR,5aR,5bR,7aR,9S,11aR,11bR,13aS)-3a-(2-(2-(1,1-dioxidothiomorpholino)acetamido)-2-methylpropanamido)-1-isopropyl-5a,5b,8,8,11a-pentamethyl-2-oxo-3,3a,4,5,5a,5b,6,7,7a,8,9,10,11,11a,11b,12,13,13a-octadecahydro-2H-cyclopenta[a]chrysen-9-yl)oxy)carbonyl)-2,2-dimethylcyclobutane-1-carboxylic acid]",IC50,HIV-1 strain 92HT599; [1],< 0.003 µM
same,IC50,HIV-1 strain 92HT599; [2],< 0.05 µM
same,IC50,HIV-1 pNL4-3 WT,< 0.005 µM
same,IC50,HIV-1 pNL4-3 V7A,0.01 to 0.05 µM
"CC(C)C1=C2[C@H]3CC[C@@H]4[C@@]5(C)CC[C@H](OC(=O)[C@H]6C[C@@H](C(=O)O)C6(C)C)C(C)(C)[C@@H]5CC[C@@]4(C)[C@]3(C)CC[C@@]2(NC(=O)C2(NC(=O)c3ccc(Cl)cc3)CC2)CC1=O [Example 37, (1R,3S)-3-((((3aR,5aR,5bR,7aR,9S,11aR,11bR,13aS)-3a-(1-(4-chlorobenzamido)cyclopropane-1-carboxamido)-1-isopropyl-5a,5b,8,8,11a-pentamethyl-2-oxo-3,3a,4,5,5a,5b,6,7,7a,8,9,10,11,11a,11b,12,13,13a-octadecahydro-2H-cyclopenta[a]chrysen-9-yl)oxy)carbonyl)-2,2-dimethylcyclobutane-1-carboxylic acid]",IC50,HIV-1 strain 92HT599; [1],< 0.003 µM
same,IC50,HIV-1 strain 92HT599; [2],< 0.05 µM
same,IC50,HIV-1 pNL4-3 WT,< 0.005 µM
same,IC50,HIV-1 pNL4-3 V7A,< 0.01 µM
